For eight compounds, TGI and GI50 results are on record in PubChem BioAssay (NCI).

Some test systems named below: 786-0 renal; CCRF-CEM leukemia; PC-3 prostate; CAKI-1 renal; SF-539 CNS; SN12C renal; SW-620 colon; SNB-19 CNS; HOP-62 NSCLC; RXF 393 renal.
Holding throughout (test): growth of human tumour cells (NCI), 48 h

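In this assay, cells in 96-well plates receive the compound at five concentrations for 48 hours. Endpoints are linearly interpolated between the surrounding concentrations. At the GI50, growth is halved. TGI marks complete inhibition of growth.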 Bounds are passed on as bounds.

With `Cc1ccc(Cl)c2c(N=Nc3ccccc3[N+](=O)[O-])c(O)[nH]c12`, the TGI with 786-0 renal was above 100 µM; with CCRF-CEM leukemia it was above 100 µM; in the test with PC-3 prostate it was above 100 µM; in the test on CAKI-1 renal it was above 100 µM; in the test on SF-539 CNS it was 48.6 µM; in the test with SN12C renal, above 100 µM. The TGI in the test with SW-620 colon, in the test on SNB-19 CNS, in the test with HOP-62 NSCLC and with RXF 393 renal was above 100 µM in each case.

`Nc1nc(-n2c(-c3ccccc3)nc3c(Br)cc(Br)cc3c2=O)nnc1-c1cccc(Cl)c1Cl`: the GI50 in the test with 786-0 renal was 11.2 µM; in the test on CCRF-CEM leukemia it was 5330 nM; in the test on PC-3 prostate, 26.6 µM; in the test with CAKI-1 renal, 17 µM; in the test on SF-539 CNS it was 7.8 µM; in the test with SN12C renal, 18.8 µM. In addition, the GI50 with SW-620 colon is 5.15 µM; in the test on SNB-19 CNS, 29900 nM; in the test with HOP-62 NSCLC it was 2840 nM; in the test with RXF 393 renal, 14.5 µM. In addition, the TGI with 786-0 renal is 60.7 µM; with CCRF-CEM leukemia it was above 100 µM; in the test on PC-3 prostate, above 100 µM; in the test on CAKI-1 renal it was above 100 µM; in the test on SF-539 CNS, 40.4 µM; in the test on SN12C renal, above 100 µM. Moreover, the TGI is above 100 µM with SW-620 colon, above 100 µM with SNB-19 CNS, 9.8 µM with HOP-62 NSCLC and 58.1 µM in the test with RXF 393 renal.

In the case of `COc1cc(/C=N\NC(=O)CN2CCN(c3cc4c(cc3F)c(=O)c(C(=O)N/N=C/c3cc(OC)c(OC)c(OC)c3)cn4C3CC3)CC2)cc(OC)c1OC`, the GI50 with 786-0 renal is 18.7 µM; in the test on CCRF-CEM leukemia it was 316 nM; in the test with PC-3 prostate, 0.244 µM; with CAKI-1 renal, above 50.5 µM; with SF-539 CNS, 0.212 µM; in the test with SN12C renal it was 0.225 µM. Besides, the GI50 with SW-620 colon was 0.328 µM; with SNB-19 CNS, 445 nM; with HOP-62 NSCLC, 374 nM; with RXF 393 renal it was 1.63 µM. For the same compound, the TGI was above 100 µM in the test with 786-0 renal; above 100 µM with CCRF-CEM leukemia; 0.656 µM in the test on PC-3 prostate; above 100 µM in the test on CAKI-1 renal; 0.522 µM in the test on SF-539 CNS; 0.601 µM in the test on SN12C renal. The TGI in the test on SW-620 colon was above 100 µM; in the test with SNB-19 CNS it was above 100 µM; in the test on HOP-62 NSCLC, 21 µM; in the test on RXF 393 renal, 30.4 µM.

Regarding `Fc1[nH]nc2ccc([C@@H]3Nc4ccc5[nH]ncc5c4[C@H]4C5CCC(C5)[C@@H]34)cc12` (stereo not given in full), the GI50 in the test with 786-0 renal is 2.82 µM; with CCRF-CEM leukemia, 514 nM; in the test with PC-3 prostate, 1.12 µM; with CAKI-1 renal it was 0.671 µM; in the test with SF-539 CNS, 0.854 µM; with SN12C renal it was 1.99 µM. The GI50 is 0.472 µM in the test with SW-620 colon, 1220 nM with SNB-19 CNS, 747 nM with HOP-62 NSCLC and 1.22 µM in the test on RXF 393 renal. Also, the TGI came out at 15.6 µM with 786-0 renal; 16.5 µM with CCRF-CEM leukemia; 13.6 µM in the test on PC-3 prostate; 15 µM in the test with CAKI-1 renal; 3.94 µM in the test on SF-539 CNS; 18.1 µM in the test on SN12C renal. For the same compound, the TGI in the test with SW-620 colon came to 17.3 µM; in the test on SNB-19 CNS, 18.1 µM; with HOP-62 NSCLC, 13.8 µM; in the test on RXF 393 renal, 7.8 µM.

Turning to `Cc1ccsc1C(=S)Nc1ccc(Cl)c(/C=N/OC(C)(C)C)c1`, the TGI in the test on 786-0 renal was 57.2 µM; in the test with CCRF-CEM leukemia, above 100 µM; in the test with PC-3 prostate, above 100 µM; in the test on CAKI-1 renal, above 100 µM; in the test with SF-539 CNS it was above 100 µM; in the test with SN12C renal it was above 100 µM. Moreover, the TGI was above 100 µM in the test with SW-620 colon, above 100 µM with SNB-19 CNS, above 100 µM in the test on HOP-62 NSCLC and 36.6 µM in the test on RXF 393 renal.

Take `Nc1ccccc1C#C/C=C\C#Cc1ccccc1OC(F)(F)F`: the GI50 in the test on 786-0 renal was 5.48 µM; with CCRF-CEM leukemia, 1110 nM; in the test with PC-3 prostate, 5.98 µM; with CAKI-1 renal it was 4.42 µM; with SF-539 CNS, 3.5 µM; with SN12C renal, 9.85 µM. Further, the GI50 in the test with SW-620 colon is 3.96 µM; in the test with SNB-19 CNS it was 2550 nM; in the test on HOP-62 NSCLC, 6100 nM; in the test with RXF 393 renal, 4.39 µM. Besides, the TGI is 21 µM in the test with 786-0 renal; 23.2 µM in the test on CCRF-CEM leukemia; above 100 µM with PC-3 prostate; 28.2 µM in the test on CAKI-1 renal; 13.3 µM in the test with SF-539 CNS; 26.8 µM in the test on SN12C renal. The TGI worked out at 16 µM in the test with SW-620 colon, 9.72 µM in the test on SNB-19 CNS, 20.6 µM in the test on HOP-62 NSCLC and 23.9 µM in the test with RXF 393 renal.

For `CCOC(=O)Cn1c(C(F)(F)F)nc2nc(Cl)c(Cl)nc21`, the TGI with 786-0 renal is above 100 µM; in the test on CCRF-CEM leukemia, above 69.5 µM; in the test with PC-3 prostate, above 100 µM; in the test on CAKI-1 renal it was 11.5 µM; with SF-539 CNS, above 85.4 µM; in the test with SN12C renal, above 100 µM. In addition, the TGI was above 100 µM in the test on SW-620 colon, above 96.2 µM in the test on SNB-19 CNS, 60.4 µM with HOP-62 NSCLC and above 100 µM with RXF 393 renal.

In the case of `OCCN(CCO)c1ncnc2c1ncn2Cc1ccc(CCl)cc1`, the GI50 with 786-0 renal was 20.4 µM; in the test on CCRF-CEM leukemia it was 11000 nM; with PC-3 prostate it was 14 µM; in the test on CAKI-1 renal, 14.5 µM; in the test on SF-539 CNS it was 10.3 µM; in the test with SN12C renal it was 21 µM. The GI50 was 10.8 µM with SW-620 colon, 19900 nM with SNB-19 CNS, 23800 nM in the test with HOP-62 NSCLC and 12 µM in the test with RXF 393 renal. In addition, the TGI in the test with 786-0 renal stood at 37.8 µM; in the test with CCRF-CEM leukemia, 47.1 µM; in the test on PC-3 prostate it was 33.7 µM; in the test on CAKI-1 renal, 30 µM; in the test with SF-539 CNS, 24.2 µM; with SN12C renal, 45.8 µM. For the same compound, the TGI in the test on SW-620 colon is 27.3 µM; in the test with SNB-19 CNS, 41.2 µM; in the test with HOP-62 NSCLC it was 41.1 µM; in the test on RXF 393 renal, 37.1 µM.
